Laboratory results published in patent US8377884B2, “Variants of C-type natriuretic peptides” (Biomarin Pharmaceutical Inc., priority 2007, dated 2013).
Like-named read-outs stand apart in the source and are kept apart here. Bridge positions count the residues as written; N and C are the ends. Square brackets hold non-standard residues; d marks the D form. Peptide text beside a SMILES is read from it. tBuAla = CC(C)(C)C[C@H](N)C(=O)O; Cit = NC(=O)NCCC[C@H](N)C(=O)O

Biological target: T1, NPR-B (Mus musculus, UniProt Q6VVW5)
T1 construct: Murine NIH3T3 cells express endogenously the CNP signaling receptor, NPR-B; endogenous in cells; host or cells: NIH3T3 (murine fibroblasts)
T1 sequence (Q6VVW5 17-1047): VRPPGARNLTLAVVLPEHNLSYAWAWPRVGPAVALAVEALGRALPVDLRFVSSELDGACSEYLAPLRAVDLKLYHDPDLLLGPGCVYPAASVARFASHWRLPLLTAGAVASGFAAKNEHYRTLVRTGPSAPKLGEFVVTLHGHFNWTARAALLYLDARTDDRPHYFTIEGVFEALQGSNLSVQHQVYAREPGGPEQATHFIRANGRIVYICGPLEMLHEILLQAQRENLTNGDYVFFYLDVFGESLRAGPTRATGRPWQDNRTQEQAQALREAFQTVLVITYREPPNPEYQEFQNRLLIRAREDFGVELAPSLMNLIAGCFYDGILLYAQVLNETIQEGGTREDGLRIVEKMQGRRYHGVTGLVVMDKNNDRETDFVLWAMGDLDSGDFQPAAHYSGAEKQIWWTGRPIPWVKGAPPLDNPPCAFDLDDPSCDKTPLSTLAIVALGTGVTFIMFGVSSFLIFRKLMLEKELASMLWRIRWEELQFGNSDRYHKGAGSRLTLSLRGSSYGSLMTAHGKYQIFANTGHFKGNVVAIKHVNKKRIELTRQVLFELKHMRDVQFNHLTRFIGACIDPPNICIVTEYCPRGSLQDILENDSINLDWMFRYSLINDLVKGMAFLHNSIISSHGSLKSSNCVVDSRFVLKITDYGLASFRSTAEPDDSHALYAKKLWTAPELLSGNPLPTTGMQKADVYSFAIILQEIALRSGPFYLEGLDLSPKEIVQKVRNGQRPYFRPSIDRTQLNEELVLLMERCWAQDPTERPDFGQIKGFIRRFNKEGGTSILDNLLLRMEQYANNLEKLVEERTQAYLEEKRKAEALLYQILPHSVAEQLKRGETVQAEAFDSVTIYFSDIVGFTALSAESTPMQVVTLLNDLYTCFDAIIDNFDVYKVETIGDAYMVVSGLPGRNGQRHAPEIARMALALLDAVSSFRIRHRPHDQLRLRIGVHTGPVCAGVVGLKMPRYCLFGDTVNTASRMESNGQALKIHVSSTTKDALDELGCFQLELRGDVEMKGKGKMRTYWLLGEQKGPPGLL
Experiment: Stimulation of cGMP production in NIH3T3 cells
Type: cell-based, Murine
Conditions: for cGMP response relative to 1 uM CNP22 (%) at 0.01 µM: read-out: cGMP Response rel. to 1 uM CNP22, 10 nM; for cGMP response relative to 1 uM CNP22 (%) at 1 µM: read-out: cGMP Response rel. to 1 uM CNP22, 1 uM

[1] = NIH3T3 cells, 10 nM natriuretic peptide, normalized to cell number and cGMP production with 1 uM wtCNP22
[2] = NIH3T3 cells, 1 uM natriuretic peptide, normalized to cell number and cGMP production with 1 uM wtCNP22

Row | Structure (SMILES) | cGMP response relative to 1 uM CNP22 (%) at 0.01 µM (NIH3T3, […]) [%] | cGMP response relative to 1 uM CNP22 (%) at 1 µM (NIH3T3, […]) [%] | cGMP response relative to 1 uM CNP22 (%) at 0.01 µM [1] [%] | cGMP response relative to 1 uM CNP22 (%) at 1 µM [2] [%]
1 | CC[C@H](C)[C@@H]1NC(=O)[C@H](CCCNC(=N)N)NC(=O)[C@H](CC(=O)O)NC(=O)[C@H](CC(C)C)NC(=O)[C@H](CCCCN)NC(=O)[C@H](CC(C)C)NC(=O)CNC(=O)[C@H](Cc2ccccc2)NC(=O)[C@@H](NC(=O)CNC(=O)[C@H](CCCNC(=N)N)NC(=O)[C@H](CO)NC(=O)[C@H](CC(C)C)NC(=O)CN)CSSC[C@@H](C(=O)O)NC(=O)CNC(=O)[C@H](CC(C)C)NC(=O)CNC(=O)[C@H](CO)NC(=O)[C@H](CCSC)NC(=O)[C@H](CO)NC(=O)[C@H](CCCNC(=N)N)NC1=O [AE] (H-GLSRGCFGLKLDRIRSMSGLGC-OH; disulfide 6-22 (inferred); N-terminus and C-terminus assumed) | 0.3 | 0.3 |  | 
2 | CC[C@H](C)[C@@H]1NC(=O)[C@H](CCCNC(=N)N)NC(=O)[C@H](CC(=O)O)NC(=O)[C@H](CC(C)C)NC(=O)[C@H](CCCCN)NC(=O)[C@H](CC(C)C)NC(=O)CNC(=O)[C@H](Cc2ccccc2)NC(=O)[C@@H](NC(=O)CNC(=O)[C@H](CCCNC(=N)N)NC(=O)[C@H](CO)NC(=O)[C@H](CC(C)C)NC(=O)CN)CSSC[C@@H](C(=O)O)NC(=O)CNC(=O)[C@H](CC(C)(C)C)NC(=O)CNC(=O)[C@H](CO)NC(=O)[C@H](CCSC)NC(=O)[C@H](CO)NC(=O)CNC1=O [AK] (H-GLSRGCFGLKLDRIGSMSG[tBuAla]GC-OH; disulfide 6-22 (inferred); N-terminus and C-terminus assumed) |  |  | 1 | 21
3 | CC[C@H](C)[C@@H]1NC(=O)[C@H](CCCNC(=N)N)NC(=O)[C@H](CC(=O)O)NC(=O)[C@H](CC(C)C)NC(=O)[C@H](CCCNC(=N)N)NC(=O)[C@H](CC(C)C)NC(=O)CNC(=O)[C@H](Cc2ccccc2)NC(=O)[C@@H](NC(=O)CNC(=O)[C@H](CCCNC(=N)N)NC(=O)[C@H](CO)NC(=O)[C@H](CC(C)C)NC(=O)CN)CSSC[C@@H](C(=O)O)NC(=O)CNC(=O)[C@H](CC(C)C)NC(=O)CNC(=O)[C@H](CO)NC(=O)[C@H](CCSC)NC(=O)[C@H](CO)NC(=O)CNC1=O [BH] (H-GLSRGCFGLRLDRIGSMSGLGC-OH; disulfide 6-22) |  |  | 12 | 80
4 | CC[C@H](C)[C@@H]1NC(=O)[C@H](CCCNC(=N)N)NC(=O)[C@H](CC(=O)O)NC(=O)[C@H](CC(C)C)NC(=O)[C@H](CCCCN)NC(=O)[C@H](CC(C)C)NC(=O)CNC(=O)[C@H](Cc2ccccc2)NC(=O)[C@@H](NC(=O)CNC(=O)[C@H](CCCCN)NC(=O)[C@H](CO)NC(=O)[C@H](CC(C)C)NC(=O)CNC(=O)[C@H](CCC(N)=O)NC(=O)[C@H](CCC(N)=O)NC(=O)[C@H](CC(N)=O)NC(=O)[C@H](C)NC(=O)CNC(=O)[C@H](Cc2c[nH]cn2)NC(=O)[C@@H](NC(=O)[C@H](CC(=O)O)NC(=O)[C@H](Cc2c[nH]cn2)NC(=O)[C@H](CCC(=O)O)NC(=O)[C@H](Cc2c[nH]cn2)NC(=O)[C@@H]2CCCN2C(=O)[C@H](Cc2c[nH]cn2)NC(=O)[C@H](Cc2c[nH]cn2)NC(=O)[C@H](C)NC(=O)CN)[C@@H](C)O)CSSC[C@@H](C(=O)O)NC(=O)CNC(=O)[C@H](CC(C)C)NC(=O)CNC(=O)[C@H](CO)NC(=O)[C@H](CCSC)NC(=O)[C@H](CO)NC(=O)CNC1=O [CR] (H-GAHHPHEHDTHGANQQGLSKGCFGLKLDRIGSMSGLGC-OH; disulfide 22-38 (inferred); N-terminus and C-terminus assumed) | 14 ± 5 | 77 ± 12 |  | 
5 | CC[C@H](C)[C@@H]1NC(=O)[C@H](CCCNC(=N)N)NC(=O)[C@H](CC(=O)O)NC(=O)[C@H](CC(C)C)NC(=O)[C@H](CCCNC(N)=O)NC(=O)[C@H](CC(C)C)NC(=O)CNC(=O)[C@H](Cc2ccccc2)NC(=O)[C@@H](NC(=O)CNC(=O)[C@H](CCCNC(=N)N)NC(=O)[C@H](CO)NC(=O)[C@H](CC(C)C)NC(=O)CN)CSSC[C@@H](C(=O)O)NC(=O)CNC(=O)[C@H](CC(C)C)NC(=O)CNC(=O)[C@H](CO)NC(=O)[C@H](CCSC)NC(=O)[C@H](CO)NC(=O)CNC1=O [BF] (H-GLSRGCFGL[Cit]LDRIGSMSGLGC-OH; disulfide 6-22 (inferred); N-terminus and C-terminus assumed) |  |  | 6 | 33
6 | CC[C@H](C)[C@@H]1NC(=O)[C@H](CCCNC(=N)N)NC(=O)[C@H](CC(=O)O)NC(=O)[C@H](CC(C)C)NC(=O)[C@H](CCCCN)NC(=O)[C@H](CC(C)C)NC(=O)CNC(=O)[C@H](Cc2ccccc2)NC(=O)[C@@H](NC(=O)CNC(=O)[C@H](CCCNC(=N)N)NC(=O)[C@H](CO)NC(=O)[C@H](CC(C)C)NC(=O)CN)CSSC[C@@H](C(=O)O)NC(=O)CNC(=O)[C@H](CC(C)C)NC(=O)CNC(=O)[C@H](CO)NC(=O)[C@H](C(C)C)NC(=O)[C@H](CO)NC(=O)CNC1=O [AG] (H-GLSRGCFGLKLDRIGSVSGLGC-OH; disulfide 6-22 (inferred); N-terminus and C-terminus assumed) | 10 | 65 |  | 
7 | CC[C@H](C)[C@@H]1NC(=O)[C@H](CCCNC(=N)N)NC(=O)[C@H](CC(=O)O)NC(=O)[C@H](CC(C)C)NC(=O)[C@H](CCCCN)NC(=O)[C@H](CC(C)C)NC(=O)CNC(=O)[C@H](Cc2ccccc2)NC(=O)[C@@H](NC(=O)CNC(=O)[C@H](CCCNC(=N)N)NC(=O)[C@H](CO)NC(=O)[C@H](CC(C)C)NC(=O)CNC(=O)[C@H](CCC(N)=O)NC(=O)[C@H](CCC(N)=O)NC(=O)[C@H](CC(N)=O)NC(=O)[C@H](C)NC(=O)CNC(=O)[C@H](CO)NC(=O)[C@H](CCC(N)=O)NC(=O)[C@@H](NC(=O)CNC(=O)[C@H](CO)NC(=O)[C@H](CO)NC(=O)[C@H](Cc2c[nH]cn2)NC(=O)[C@@H](NC(=O)[C@H](CCC(N)=O)NC(=O)CN)[C@@H](C)O)[C@@H](C)O)CSSC[C@@H](C(=O)O)NC(=O)CNC(=O)[C@H](CC(C)C)NC(=O)CNC(=O)[C@H](CO)NC(=O)[C@H](CCSC)NC(=O)[C@H](CO)NC(=O)CNC1=O [CN] (H-GQTHSSGTQSGANQQGLSRGCFGLKLDRIGSMSGLGC-OH; disulfide 21-37) |  |  | 12 | 115
8 | CC[C@H](C)[C@@H]1NC(=O)[C@H](CCCNC(=N)N)NC(=O)[C@H](CC(=O)O)NC(=O)[C@H](CC(C)C)NC(=O)[C@H](CCCCN)NC(=O)[C@H](CC(C)C)NC(=O)CNC(=O)[C@H](Cc2ccccc2)NC(=O)[C@@H](NC(=O)CNC(=O)[C@H](CCCNC(=N)N)NC(=O)[C@H](CO)NC(=O)[C@H](CC(C)C)NC(=O)CN)CSSC[C@@H](C(=O)O)NC(=O)CNC(=O)[C@H](CC(C)C)NC(=O)CNC(=O)[C@H](CO)NC(=O)[C@H](CCSC)NC(=O)[C@H](CO)NC(=O)[C@H](CCCNC(N)=O)NC1=O [AF] (H-GLSRGCFGLKLDRI[Cit]SMSGLGC-OH; disulfide 6-22 (inferred); N-terminus and C-terminus assumed) | 1.4 | 2 |  | 
9 | CC[C@H](C)[C@@H]1NC(=O)[C@H](CCCNC(=N)N)NC(=O)[C@H](CC(=O)O)NC(=O)[C@H](CC(C)C)NC(=O)[C@H](CCCCN)NC(=O)[C@H](CC(C)C)NC(=O)CNC(=O)[C@H](Cc2ccccc2)NC(=O)[C@@H](N)CSSC[C@@H](C(=O)O)NC(=O)CNC(=O)[C@H](CC(C)C)NC(=O)CNC(=O)[C@H](CO)NC(=O)[C@H](CCSC)NC(=O)[C@H](CO)NC(=O)CNC1=O [AX] (H-CFGLKLDRIGSMSGLGC-OH; disulfide 1-17 (inferred); N-terminus and C-terminus assumed) |  |  | 18 | 69
10 | CC[C@H](C)[C@@H]1NC(=O)[C@H](CCCNC(=N)N)NC(=O)[C@H](CC(=O)O)NC(=O)[C@H](CC(C)C)NC(=O)[C@H](CCCCN)NC(=O)[C@H](CC(C)C)NC(=O)[C@H](CO)NC(=O)[C@H](Cc2ccccc2)NC(=O)[C@@H](NC(=O)CNC(=O)[C@H](CCCNC(=N)N)NC(=O)[C@H](CO)NC(=O)[C@H](CC(C)C)NC(=O)CN)CSSC[C@@H](C(=O)O)NC(=O)CNC(=O)[C@H](CC(C)C)NC(=O)CNC(=O)[C@H](CO)NC(=O)[C@H](CCSC)NC(=O)[C@H](CO)NC(=O)CNC1=O [AB] (H-GLSRGCFSLKLDRIGSMSGLGC-OH; disulfide 6-22 (inferred); N-terminus and C-terminus assumed) |  |  | 26 ± 26 | 86 ± 17
